The subject of assay [1] is NF-κB pathway (SEAP) in THP1-Dual cells. As to the kind of experiment: THP-1 Dual cell SEAP assay (L18-MDP stimulated). In kind it is cell-based. Particulars: read-out: NFkB THP1 IC50.
In assay [2] the target is GST-RIPK2 fusion protein (human RIPK2 amino acids 1-310) (Homo sapiens (Human), UniProt O43353). Nature of the assay: RIPK2 binding competition assay (TR-FRET, Tracer 199).
Setting [3] is: read-out: RIPK2 IC50, RIPK2 binding competition assay.

We go through 27 compounds from patent US20250346593A1, “IMIDAZO(1,2-1)PYRIDINE DERIVATIVES AS RIPK2 INHIBITORS” (Interline Therapeutics, Inc., priority 2022, published 2025).

Read-outs that look alike come from different tables or passages of the source.

Chain of GST-RIPK2 fusion protein (human RIPK2 amino acids 1-310) (O43353 1-310): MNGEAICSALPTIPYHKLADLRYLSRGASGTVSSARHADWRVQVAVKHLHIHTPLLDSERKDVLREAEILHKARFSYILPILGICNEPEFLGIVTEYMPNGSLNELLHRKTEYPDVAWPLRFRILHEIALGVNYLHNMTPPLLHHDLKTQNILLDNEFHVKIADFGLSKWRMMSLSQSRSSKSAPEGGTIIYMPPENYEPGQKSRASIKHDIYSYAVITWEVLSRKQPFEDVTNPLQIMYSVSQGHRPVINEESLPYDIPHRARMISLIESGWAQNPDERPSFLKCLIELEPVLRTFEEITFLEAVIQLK

`COc1cc2ncc(-c3cc(F)nc(N[C@@H]4CC[C@H](O)C4)c3)n2cc1S(=O)(=O)C(C)(C)C` (racemic) [Example 192, rac-(1R,3S)-3-((4-(6-(tert-butylsulfonyl)-7-methoxyimidazo[1,2-a]pyridin-3-yl)-6-fluoropyridin-2-yl)amino)cyclopentan-1-ol]: the IC50 in assay [1] (Homo sapiens, THP1-Dual) was < 50 nM; in assay [2], < 1 nM.
For `COc1cc2ncc(-c3cc(F)nc(N[C@@H]4CC[C@@H](O)C4)c3)n2cc1S(=O)(=O)C(C)(C)C` (racemic) [Example 197, rac-(1R,3R)-3-((4-(6-(tert-butylsulfonyl)-7-methoxyimidazo[1,2-a]pyridin-3-yl)-6-fluoropyridin-2-yl)amino)cyclopentan-1-ol], in that order: < 50 nM and 1 to 2.5 nM.
For `COc1cc2ncc(-c3cc(F)nc(N[C@@H]4CCC[C@@H](O)C4)c3)n2cc1S(=O)(=O)C(C)(C)C` (racemic) [Example 205, rac-(1R,3R)-3-((4-(6-(tert-butylsulfonyl)-7-methoxyimidazo[1,2-a]pyridin-3-yl)-6-fluoropyridin-2-yl)amino)cyclohexan-1-ol], in that order: 50 to 250 nM and 1 to 2.5 nM.
For `COc1cc2ncc(-c3cc(F)nc(NC4CCCC[C@H]4O)c3)n2cc1S(=O)(=O)C(C)(C)C` (mixture of isomers) [Example 225, (1R,2R & 1S,2S)-2-((4-(6-(tert-butylsulfonyl)-7-methoxyimidazo[1,2-a]pyridin-3-yl)-6-fluoropyridin-2-yl)amino)cyclohexan-1-ol], in that order: 250 to 1000 nM and 2.5 to 20 nM.
Take `CCOc1cc2ncc(-c3cc(F)nc(NCCC(O)CC)c3)n2cc1S(=O)(=O)C(C)C` (racemic) [Example 246, Rac-1-({4-[7-ethoxy-6-(propane-2-sulfonyl)imidazo[1,2-a]pyridin-3-yl]-6-fluoropyridin-2-yl}amino)pentan-3-ol]: the IC50 was < 50 nM in assay [1] (Homo sapiens, THP1-Dual) and < 1 nM in assay [2].
As to `COc1cc2ncc(-c3cc(F)nc(NCCC(C)O)c3)n2cc1S(=O)(=O)C(C)(C)C` (single isomer, unassigned) [Example 169, 4-((4-(6-(tert-butylsulfonyl)-7-methoxyimidazo[1,2-a]pyridin-3-yl)-6-fluoropyridin-2-yl)amino)butan-2-ol], the IC50 in assay [1] (Homo sapiens, THP1-Dual) was < 50 nM; in assay [2], < 1 nM.
As to `COc1cc2ncc(-c3cc(F)nc(NCCC(C)O)c3)n2cc1S(=O)(=O)C(C)(C)C` (single isomer, unassigned) [Example 170, 4-((4-(6-(tert-butylsulfonyl)-7-methoxyimidazo[1,2-a]pyridin-3-yl)-6-fluoropyridin-2-yl)amino)butan-2-ol], the IC50 was < 50 nM in assay [1] and < 1 nM in assay [2] (setting [3]).
Turning to `COc1cc2ncc(-c3cc(F)nc(NC[C@@H]4CCNC(=O)C4)c3)n2cc1S(=O)(=O)C(C)(C)C` (single isomer, unassigned) [Example 238, (4R or S)-4-[({6-fluoro-4-[7-methoxy-6-(2-methylpropane-2-sulfonyl)imidazo[1,2-a]pyridin-3-yl]pyridin-2-yl}amino)methyl]pi peridin-2-one], the IC50 is 50 to 250 nM in assay [1] (Homo sapiens, THP1-Dual) and 1 to 2.5 nM in assay [2].
For `COc1cc2ncc(-c3cc(F)nc(NC[C@H]4CCNC(=O)C4)c3)n2cc1S(=O)(=O)C(C)(C)C` (single isomer, unassigned) [Example 239, (4R or S)-4-[({6-fluoro-4-[7-methoxy-6-(2-methylpropane-2-sulfonyl)imidazo[1,2-a]pyridin-3-yl]pyridin-2-yl}amino)methyl]pi peridin-2-one], in that order: < 50 nM and < 1 nM.
For `COc1cc2ncc(-c3cc(F)nc(NCC[C@H]4CNC(=O)C4)c3)n2cc1S(=O)(=O)C(C)(C)C` (single isomer, unassigned) [Example 240, (4R or S)-4-[2-({6-fluoro-4-[7-methoxy-6-(2-methylpropane-2-sulfonyl)imidazo[1,2-a]pyridin-3-yl]pyridin-2-yl}amino)ethyl] pyrrolidin-2-one], in that order: < 50 nM and < 1 nM.
For `COc1cc2ncc(-c3cc(F)nc(NCC[C@@H]4CNC(=O)C4)c3)n2cc1S(=O)(=O)C(C)(C)C` (single isomer, unassigned) [Example 241, (4R or S)-4-[2-({6-fluoro-4-[7-methoxy-6-(2-methylpropane-2-sulfonyl)imidazo[1,2-a]pyridin-3-yl]pyridin-2-yl}amino)ethyl] pyrrolidin-2-one], in that order: < 50 nM and < 1 nM.
With `COc1cc2ncc(-c3cc(F)nc(N[C@@H]4CCCC[C@H]4O)c3)n2cc1S(=O)(=O)C(C)(C)C` (single isomer, unassigned) [Example 244, trans-(15,2S or 1R,2R)-2-({6-fluoro-4-[7-methoxy-6-(2-methylpropane-2-sulfonyl)imidazo[1,2-a]pyridin-3-yl]pyridin-2-yl}amino)cyclohexan-1-ol], the IC50 in assay [1] (Homo sapiens, THP1-Dual) lay in the range of 250 to 1000 nM; in assay [2], 2.5 to 20 nM.
For `COc1cc2ncc(-c3cc(F)nc(N[C@H]4CCCC[C@@H]4O)c3)n2cc1S(=O)(=O)C(C)(C)C` (single isomer, unassigned) [Example 245, trans-(15,2S or 1R,2R)-2-({6-fluoro-4-[7-methoxy-6-(2-methylpropane-2-sulfonyl)imidazo[1,2-a]pyridin-3-yl]pyridin-2-yl}amino)cyclohexan-1-ol], in that order: 250 to 1000 nM and 2.5 to 20 nM.
Turning to `CC(C)(C)S(=O)(=O)c1ccc2ncc(-c3cc(F)nc(F)c3)n2c1` [Example 1, 6-(tert-butylsulfonyl)-3-(2,6-difluoropyridin-4-yl)imidazo[1,2-a]pyridine], the IC50 was > 1000 nM in assay [1] (Homo sapiens, THP1-Dual) and > 20 nM in assay [2] (setting [3]).
Regarding `COc1cc2ncc(-c3cc(N)c(OC)c(F)c3)n2cc1S(=O)(=O)C(C)(C)C` [Example 2, 5-(6-(tert-butylsulfonyl)-7-methoxyimidazo[1,2-a]pyridin-3-yl)-3-fluoro-2-methoxyaniline], the IC50 in assay [1] (Homo sapiens, THP1-Dual) is > 1000 nM; in assay [2] it was 2.5 to 20 nM.
As to `COc1cc2ncc(-c3cc(F)c(C#N)c(F)c3)n2cc1S(=O)(=O)C(C)(C)C` [Example 3, 4-(6-(tert-butylsulfonyl)-7-methoxyimidazo[1,2-a]pyridin-3-yl)-2,6-difluorobenzonitrile], the IC50 in assay [1] (Homo sapiens, THP1-Dual) was > 1000 nM; in assay [2] (setting [3]), > 20 nM.
Regarding `COc1cc2ncc(-c3cn[nH]c3)n2cc1S(=O)(=O)C(C)(C)C` [Example 4, 6-(tert-butylsulfonyl)-7-methoxy-3-(1H-pyrazol-4-yl)imidazo[1,2-a]pyridine], the IC50 fell in the range of 250 to 1000 nM in assay [1] (Homo sapiens, THP1-Dual) and 2.5 to 20 nM in assay [2].
With `COc1cc2ncc(-c3ccnc(N)c3)n2cc1S(=O)(=O)C(C)(C)C` [Example 11, 4-[7-methoxy-6-(2-methylpropane-2-sulfonyl)imidazo[1,2-a]pyridin-3-yl]pyridin-2-amine], in assay [1] (Homo sapiens, THP1-Dual), the IC50 fell in the range of 250 to 1000 nM.
On the same count and under the same terms, next, `COc1cc2ncc(-c3ccc(O)cc3)n2cc1S(=O)(=O)C(C)(C)C` [Example 149, 4-(6-(tert-butylsulfonyl)-7-methoxyimidazo[1,2-a]pyridin-3-yl)phenol]: 250 to 1000 nM.
As to `COc1cc2ncc(-c3cc(F)nc(NC4CC(O)C4)c3)n2cc1S(=O)(=O)C(C)(C)C` (centres unmarked) [Example 191, (1s,3s)-3-((4-(6-(tert-butylsulfonyl)-7-methoxyimidazo[1,2-a]pyridin-3-yl)-6-fluoropyridin-2-yl)amino)cyclobutan-1-ol], the IC50 in assay [1] (Homo sapiens, THP1-Dual) is < 50 nM.
As to `COc1cc2ncc(-c3cc(F)nc(NC4CCC(O)CC4)c3)n2cc1S(=O)(=O)C(C)(C)C` (centres unmarked) [Example 204, (1r,4r)-4-((4-(6-(tert-butylsulfonyl)-7-methoxyimidazo[1,2-a]pyridin-3-yl)-6-fluoropyridin-2-yl)amino)cyclohexan-1-ol], the IC50 in assay [1] (Homo sapiens, THP1-Dual) lay within 50 to 250 nM.
Take `COc1cc2ncc(-c3cc(F)nc(N4CC5(C4)CC(O)(C(F)(F)F)C5)c3)n2cc1S(=O)(=O)C(C)(C)C` [Example 217, 2-{6-fluoro-4-[7-methoxy-6-(2-methylpropane-2-sulfonyl)imidazo[1,2-a]pyridin-3-yl]pyridin-2-yl}-6-(trifluoromethyl)-2-azaspiro[3.3]heptan-6-ol]: in assay [2], the IC50 is 2.5 to 20 nM.
The same measure, in the same setting: next, `COc1cc2ncc(-c3cc(F)nc(N4CC5(CC(O)C5)C4)c3)n2cc1S(=O)(=O)C(C)(C)C` [Example 218, 2-{6-fluoro-4-[7-methoxy-6-(2-methylpropane-2-sulfonyl)imidazo[1,2-a]pyridin-3-yl]pyridin-2-yl}-2-azaspiro[3.3]heptan-6-o1]: 2.5 to 20 nM.
On the same count and under the same terms, with `COc1cc2ncc(-c3cc(F)nc(N[C@H]4C[C@H](OC)C4)c3)n2cc1S(=O)(=O)C(C)(C)C` [Example 219, 6-fluoro-4-[7-methoxy-6-(2-methylpropane-2-sulfonyl)imidazo[1,2-a]pyridin-3-yl]-N-[(trans)-3-methoxycyclobutyl] pyridin-2-amine] the figure was 1 to 2.5 nM.
Still for that read-out and setting: next, `COc1cc2ncc(-c3cc(F)nc(N[C@H]4C[C@@H](OC)C4)c3)n2cc1S(=O)(=O)C(C)(C)C` [Example 220, 6-fluoro-4-[7-methoxy-6-(2-methylpropane-2-sulfonyl)imidazo[1,2-a]pyridin-3-yl]-N-[cis-3-methoxycyclobutyl] pyridin-2-amine]: 1 to 2.5 nM.
With `CC(C)(C)S(=O)(=O)c1ccn2ncc(-c3ccc(NCCCO)nc3F)c2c1` [Example 297, 3-((5-(5-(tert-butylsulfonyl)pyrazolo[1,5-a]pyridin-3-yl)-6-fluoropyridin-2-yl)amino)propan-1-ol], the IC50 in assay [2] (setting [3]) was > 20 nM.
As for `COc1cc2ncc(-c3cc(F)nc(NCCCNC(C)=O)c3)n2cc1S(=O)(=O)C(C)(C)C` [Example 318, N-[3-({6-fluoro-4-[7-methoxy-6-(2-methylpropane-2-sulfonyl)imidazo [1,2-a]pyridin-3-yl]pyridin-2-yl}amino)propyl] acetamide], the IC50 in assay [2] fell in the range of 1 to 2.5 nM.

The term IC50 denotes the point on the concentration scale where inhibition reaches its midpoint.
